Data on one molecule can be found in patent US7018989B2, “Chemical compounds” (University College Cardiff Consultants, LTD, priority 1995, dated 2006).

The test system of one series is III-B strain of HIV-1. The series can be described thus: microbe, parasite or virus in culture. The series is classed as cell-based. In outline:
(§1)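 C8166 cells (4×10^4/well) in RPMI 1640 with 10% calf serum, mixed with 5-fold compound dilutions, then given 10 CCID50 HIV-1 III-B and kept 5–7 days. Viability of infected and uninfected cells measured by MTT-formazan; duplicates on at least two occasions, averaged.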

Series [1] in a line: Toxicity in C8166 cells (MTT-Formazen). The series is classed as cell-based. The following applies: human, Table 3. In outline:
as §1

Series [2] concerns HIV-1. The series can be described thus: Inhibition of HIV-1 in MT4 cells. The format is cell-based. The following applies: Human immunodeficiency virus 1, MT4; Table 6; mean of two or more repeat experiments; read-out: HIV1 MT4: EC50 for inhibition of HIV-1 in MT4 cells. As for the experimental part:
(§2) Cells were infected with HIV-1 as previously described [Balzarini et al. AIDS (1991), 5, 21–28]. Briefly, 5×10^5 cells per milliliter were infected with HIV-1 or HIV-2 at 100 CCID50 (50% cell culture infective dose) per milliliter of cell suspension. Then 100 μL of the infected cell suspension was transferred to microtiter plate wells and mixed with 100 μL of the appropriate dilutions of the test compounds. After 4 days giant cell formation was recorded microscopically in the HIV-infected cell cultures [CEM], and after 5 days the number of viable cells was determined by trypan blue staining of the HIV-infected cell cultures [MT4].
(§3) The data columns are, in order: • HIV1 MT4: EC50 in μM for inhibition of HIV-1 in MT4 cells. • HIV2 MT4: EC50 in μM for inhibition of HIV-2 in MT4 cells. • CC50 MT4: CC50 in μM for toxicity to MT-4 cells. • HIV1 CEM: EC50 in μM for inhibition of HIV-1 in CEM cells. • HIV2 CEM: EC50 in μM for inhibition of HIV-2 in CEM cells. • HIV2 CEM-TK-: EC50 in μM for inhibition of HIV-2 in CEM/TK^− cells. • CC50 CEM: CC50 in μM for toxicity to CEM cells. • EC50 MSV: EC50 in μM for inhibition of MSV • MCC MSV: Minimum cytotoxic concentration in MSV assay

For series [3], the system named is HIV-2. The series can be described thus: Inhibition of HIV-2 in MT4 cells. The following applies: Human immunodeficiency virus 2, MT4, read-out: HIV2 MT4: EC50 for inhibition of HIV-2 in MT4 cells. The series is classed as cell-based. As for the experimental part: as §2, §3
The next series in a line: Toxicity to MT-4 cells. The format is cell-based, human. The following applies: human, mock-infected MT-4 cells; Table 6; mean of two or more repeat experiments; read-out: CC50 MT4: CC50 for toxicity to MT-4 cells. On the procedure:
as §2, §3

The test system of series [4] is HIV-1. The series is described as follows: microbe, parasite or virus in culture. The following applies: Human immunodeficiency virus 1, CCRF-CEM. In outline:
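MT4 or CEM cells at 5×10^5/mL were infected with HIV-1 or HIV-2 at 100 CCID50/mL and cultured with compound dilutions. CEM endpoint: microscopic giant-cell formation after 4 days; MT4 endpoint: viable-cell count by trypan blue after 5 days. EC50 and CC50 in μM.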

Series [5] has as its system HIV-2. The series is described as follows: Inhibition of HIV-2 in CEM cells (giant cell formation). The series is classed as cell-based. The following applies: Human immunodeficiency virus 2, CCRF-CEM, read-out: HIV2 CEM: EC50 for inhibition of HIV-2 in CEM cells. The method in brief:
(§4)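 Infection used 100 CCID50 per mL on 5×10^5 cells/mL, followed by exposure to serial compound dilutions. Read-out: microscopic giant cell scoring after 4 days (CEM); trypan blue viable cell count after 5 days (MT-4).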

Series [6] concerns HIV-2. The series can be described thus: Inhibition of HIV-2 in CEM/TK- cells. The format is cell-based. The following applies: Human immunodeficiency virus 2, CEM-TK(-). In outline: as §4
The next series is described as follows: Toxicity to CEM cells. The format is cell-based, human. The following applies: human, mock-infected CEM cells; Table 6; mean of two or more repeat experiments.
Another series has as its target HIV RT (Human immunodeficiency virus type 1 group M subtype B, UniProt P03366). The series is described as follows: Inhibition of HIV reverse transcriptase. The series is classed as biochemical. The following applies: Table 4.
A further series deals with hog liver esterase. The series can be described thus: Incubation with hog liver esterase. The series is classed as in vitro ADME. The following applies: 1 mM, 37° C., Tris-HCl buffer containing 5 mM MgCl2. As for the experimental part:
This metabolites co-eluted with the predominant metabolite (X) that was found in the cell extracts after incubation of the intact cells with [^3H] 324. metabolite X corresponds to a compound of formula (10), wherein Y is oxygen, X^1 is NH, X^2 is oxygen, B is thymine, R^1 is Me, R^2 is hydrogen.

Series [7] relates to Moloney Sarcoma Virus [MSV]. The series is described as follows: MSV-induced tumour formation and survival in NMRI mice. The following applies: MSV infected mice. The series is classed as in vivo. On the procedure: Drug doses are 50[low ] or 200 [high] mg/kg/day given i.p. for 4 days starting 1 hour before MSV inoculation.
In Vivo Testing Inhibitory Effects of Test Compounds on the Initiation of MSV-Induced Tumour Formation in NRMI Mice and on the Survival of MSV Innoculated NMRI Mice.
Mice infected with Moloney Sarcoma Virus [MSV] were treated daily with either placebo, or d4T [at one of two doses] or with compound 324 at one of the same [equi-molar] doses.
Two- to three-day old NMRI mice (weighing—2 gram) were innoculated subcutaneously (s.c.) in the left hind leg with 50 μl MSV (100 foci forming units, as measured by in vitro determination of the virus-induced transformation of murine C3H embryo fibroblast cells). At 4 to 5 days post-infection, tumours develop and rapidly increase in volume upon further aging of the mice. Within 10 to 12 days post-infection, mice (then weighing—5 to 6 gram) die from the viral infection. Drug treatment started 1 hour prior to infection of the virus, and further compound administration was given daily i.p. for an additional 3 days. The mean day of tumour initiation (±standard deviation) and the mean day of survival of the mice (±standard deviation) was calculated and statistical significance of the average delay of tumour formation and the mean day of survival in the treated groups versus the untreated (control) group was assessed by two-tailed student's t-test.

Like-named read-outs stand apart in the source and are kept apart here.

What is called CC50 is the concentration giving 50% cytotoxicity. For the molecule `COC(=O)C(C)NP(=O)(OCC1C=CC(n2cc(C)c(=O)[nH]c2=O)O1)Oc1ccccc1` (centres unmarked) [Compound 324, 2′,3′-dideoxy-2′,3′-didehydrothymidine 5′-(phenyl N-methoxyalaninyl) phosphoramidate], the “Selectivity CC50/EC50 × 10^3” value with III-B strain of HIV-1 (HIV1 in C8166 cells, Table 3) is 46.9 × 10^3. The EC50 in the series with III-B strain of HIV-1 (Human immunodeficiency virus 1, C8166, Table 4, read-out: EC50 8166 HIV1) was 3.2 nM; with III-B strain of HIV-1 (Human immunodeficiency virus 1, HIV1 in C8166 cells, Table 3, read-out: Activity EC50) it was 3.2 nM; in the series with HIV-1 [2] it was 81 nM; with HIV-2 [3], 53 nM; with HIV-1 [4] (read-out: EC50 CEM HIV1) it was 180 nM; in the series on HIV-1 [4] (read-out: HIV1 CEM: EC50 for inhibition of HIV-1 in CEM cells), 75 nM. Moreover, the EC50 came to 75 nM in the series with HIV-2 [5], 80 nM with HIV-2 [6] (read-out: EC50 CEM TK− HIV2), 75 nM in the series with HIV-2 [6] (read-out: HIV2 CEM-TK-: EC50 for inhibition of HIV-2 in CEM/TK^− cells) and 50 µM on HIV RT. Moreover, the results for the CC50 (in [1]; in “Toxicity to CEM cells”) were 150 µM and 100 µM, respectively. Moreover, in the series “Toxicity to MT-4 cells”, the CC50 at 5 days is > 100 µM. In addition, in the series on hog liver esterase, the “metabolite formation with hog liver esterase” value was “time-dependent formation of a metabolite was observed”. For the same molecule, the “effect on tumour appearance” value in [7] (high-dose (200 mg/kg/day i.p. for 4 days)) is reported as “significant effect”. In addition, the “effect on tumour appearance (first disease parameter)” value in series [7] (low dose (50 mg/kg/day i.p. for 4 days)) is listed as “an effect”.
